{
  "source": "paper PMC8371902",
  "about": "“Phase 1 study of M2698, a p70S6K/AKT dual inhibitor, in patients with advanced cancer” (Journal of Hematology & Oncology, 2021)",
  "tested_on": "patients with advanced metastatic cancer",
  "source_text": "In this phase 1 study, dose escalation was followed by expansion cohorts of once-daily, oral M2698 in continuous 21-day cycles. Primary objectives were to determine the maximum tolerated dose (MTD), dose-limiting toxicities (DLTs), and recommended phase 2 dose (RP2D). Secondary objectives were to assess safety and tolerability, pharmacokinetics (PK, including food effect) and antitumor activity. Pharmacodynamic biomarker assessments were exploratory. Treatment was discontinued if there was disease progression, toxicity or consent withdrawal.\nIn Part 1, M2698 monotherapy was investigated in a dose escalation with a food effect cohort. In Part 2, M2698 was investigated as monotherapy (expansion cohort) to further characterize safety, tolerability and pharmacokinetics, and assess antitumor activity in PAM + patients without confounding markers (exploratory).\nDose escalation analysis included all patients who experienced a DLT and those who received ≥ 80% of planned M2698 doses in cycle 1 without experiencing a DLT. Safety analysis included all patients who received ≥ 1 dose of M2698. PK analysis included all patients who received ≥ 1 dose of M2698 and had measurable plasma concentrations. Dose proportionality was tested using the power model (linear regression approach on the log -transformed scale).",
  "note": "Read-outs that look alike come from different tables or passages of the source.",
  "data": [
    {"smiles": "NC(=O)c1cccc2c(N[C@H](CN3CCC3)c3ccc(Cl)c(C(F)(F)F)c3)ncnc12", "note": "[M2698]", "values": [
      {"measurement": "M2698-related TEAE: Mucosal inflammation", "setting": "110 mg n=4", "result": 0},
      {"measurement": "M2698-related TEAE: Nausea", "setting": "110 mg n=4", "result": 1},
      {"measurement": "M2698-related TEAE: Nervous system disorders", "setting": "110 mg n=4", "result": 0},
      {"measurement": "M2698-related TEAE: Nightmare", "setting": "110 mg n=4", "result": 0},
      {"measurement": "M2698-related TEAE: Onychomadesis", "setting": "110 mg n=4", "result": 0},
      {"measurement": "M2698-related TEAE: Paranoia", "setting": "110 mg n=4", "result": 0},
      {"measurement": "M2698-related TEAE: Photosensitivity reaction", "setting": "110 mg n=4", "result": 0},
      {"measurement": "M2698-related TEAE: Posterior reversible encephalopathy syndrome", "setting": "110 mg n=4", "result": 0},
      {"measurement": "M2698-related TEAE: Pruritus generalised", "setting": "110 mg n=4", "result": 0},
      {"measurement": "M2698-related TEAE: Psychiatric disorders", "setting": "110 mg n=4", "result": 0},
      {"measurement": "M2698-related TEAE: Rash", "setting": "110 mg n=4", "result": 0},
      {"measurement": "M2698-related TEAE: Rash maculo-papular", "setting": "110 mg n=4", "result": 0},
      {"measurement": "M2698-related TEAE: Skin and subcutaneous tissue disorders", "setting": "110 mg n=4", "result": 0},
      {"measurement": "M2698-related TEAE: Subjects with at least one event", "setting": "110 mg n=4", "result": 1},
      {"measurement": "M2698-related TEAE: Transaminases increased", "setting": "110 mg n=4", "result": 0},
      {"measurement": "M2698-related TEAE: Tremor", "setting": "110 mg n=4", "result": 0},
      {"measurement": "M2698-related TEAE: Vision blurred", "setting": "110 mg n=4", "result": 0},
      {"measurement": "M2698-related TEAE: Vomiting", "setting": "110 mg n=4", "result": 0},
      {"measurement": "M2698-related TEAE: White blood cell count decreased", "setting": "110 mg n=4", "result": 0},
      {"measurement": "M2698-related TEAE: Abnormal dreams", "setting": "160 mg n=6", "result": 1},
      {"measurement": "M2698-related TEAE: Affect lability", "setting": "160 mg n=6", "result": 0},
      {"measurement": "M2698-related TEAE: Alanine aminotransferase increased", "setting": "160 mg n=6", "result": 0},
      {"measurement": "M2698-related TEAE: Amylase increased", "setting": "160 mg n=6", "result": 0},
      {"measurement": "M2698-related TEAE: Anaemia", "setting": "160 mg n=6", "result": 0},
      {"measurement": "M2698-related TEAE: Angina pectoris", "setting": "160 mg n=6", "result": 0},
      {"measurement": "M2698-related TEAE: Anxiety", "setting": "160 mg n=6", "result": 0},
      {"measurement": "M2698-related TEAE: Aphasia", "setting": "160 mg n=6", "result": 0},
      {"measurement": "M2698-related TEAE: Ataxia", "setting": "160 mg n=6", "result": 0},
      {"measurement": "M2698-related TEAE: Blood and lymphatic system disorders", "setting": "160 mg n=6", "result": 1},
      {"measurement": "M2698-related TEAE: Blood creatine phosphokinase increased", "setting": "160 mg n=6", "result": 0},
      {"measurement": "M2698-related TEAE: Blood creatinine increased", "setting": "160 mg n=6", "result": 0},
      {"measurement": "M2698-related TEAE: Cardiac disorders", "setting": "160 mg n=6", "result": 0},
      {"measurement": "M2698-related TEAE: Cognitive disorder", "setting": "160 mg n=6", "result": 0},
      {"measurement": "M2698-related TEAE: Constipation", "setting": "160 mg n=6", "result": 0},
      {"measurement": "M2698-related TEAE: Decreased appetite", "setting": "160 mg n=6", "result": 0},
      {"measurement": "M2698-related TEAE: Delusion", "setting": "160 mg n=6", "result": 0},
      {"measurement": "M2698-related TEAE: Depression", "setting": "160 mg n=6", "result": 0},
      {"measurement": "M2698-related TEAE: Diarrhoea", "setting": "160 mg n=6", "result": 0},
      {"measurement": "M2698-related TEAE: Diarrhoea haemorrhagic", "setting": "160 mg n=6", "result": 0},
      {"measurement": "M2698-related TEAE: Dizziness", "setting": "160 mg n=6", "result": 0},
      {"measurement": "M2698-related TEAE: Dry eye", "setting": "160 mg n=6", "result": 1},
      {"measurement": "M2698-related TEAE: Dry mouth", "setting": "160 mg n=6", "result": 1},
      {"measurement": "M2698-related TEAE: Dysgeusia", "setting": "160 mg n=6", "result": 1},
      {"measurement": "M2698-related TEAE: Dyspepsia", "setting": "160 mg n=6", "result": 0},
      {"measurement": "M2698-related TEAE: Dysphagia", "setting": "160 mg n=6", "result": 1},
      {"measurement": "M2698-related TEAE: Energy increased", "setting": "160 mg n=6", "result": 1},
      {"measurement": "M2698-related TEAE: Erythema", "setting": "160 mg n=6", "result": 1},
      {"measurement": "M2698-related TEAE: Euphoric mood", "setting": "160 mg n=6", "result": 1},
      {"measurement": "M2698-related TEAE: Eye disorders", "setting": "160 mg n=6", "result": 1},
      {"measurement": "M2698-related TEAE: Fatigue", "setting": "160 mg n=6", "result": 0},
      {"measurement": "M2698-related TEAE: Gamma-glutamyltransferase increased", "setting": "160 mg n=6", "result": 1},
      {"measurement": "M2698-related TEAE: Gastrointestinal disorders", "setting": "160 mg n=6", "result": 1},
      {"measurement": "M2698-related TEAE: Gastrooesophageal reflux disease", "setting": "160 mg n=6", "result": 0},
      {"measurement": "M2698-related TEAE: General disorders and administration site conditions", "setting": "160 mg n=6", "result": 1},
      {"measurement": "M2698-related TEAE: Headache", "setting": "160 mg n=6", "result": 0},
      {"measurement": "M2698-related TEAE: Hyperhidrosis", "setting": "160 mg n=6", "result": 0},
      {"measurement": "M2698-related TEAE: Hypokalaemia", "setting": "160 mg n=6", "result": 0},
      {"measurement": "M2698-related TEAE: Hypomagnesaemia", "setting": "160 mg n=6", "result": 0},
      {"measurement": "M2698-related TEAE: Insomnia", "setting": "160 mg n=6", "result": 1},
      {"measurement": "M2698-related TEAE: Investigations", "setting": "160 mg n=6", "result": 3},
      {"measurement": "M2698-related TEAE: Lipase increased", "setting": "160 mg n=6", "result": 0},
      {"measurement": "M2698-related TEAE: Lymphopenia", "setting": "160 mg n=6", "result": 1},
      {"measurement": "M2698-related TEAE: Metabolism and nutrition disorders", "setting": "160 mg n=6", "result": 0},
      {"measurement": "M2698-related TEAE: Mucosal inflammation", "setting": "160 mg n=6", "result": 0},
      {"measurement": "M2698-related TEAE: Nausea", "setting": "160 mg n=6", "result": 0},
      {"measurement": "M2698-related TEAE: Nervous system disorders", "setting": "160 mg n=6", "result": 1},
      {"measurement": "M2698-related TEAE: Nightmare", "setting": "160 mg n=6", "result": 0},
      {"measurement": "M2698-related TEAE: Onychomadesis", "setting": "160 mg n=6", "result": 0},
      {"measurement": "M2698-related TEAE: Paranoia", "setting": "160 mg n=6", "result": 0},
      {"measurement": "M2698-related TEAE: Photosensitivity reaction", "setting": "160 mg n=6", "result": 0},
      {"measurement": "M2698-related TEAE: Posterior reversible encephalopathy syndrome", "setting": "160 mg n=6", "result": 0},
      {"measurement": "M2698-related TEAE: Pruritus generalised", "setting": "160 mg n=6", "result": 0},
      {"measurement": "M2698-related TEAE: Psychiatric disorders", "setting": "160 mg n=6", "result": 2},
      {"measurement": "M2698-related TEAE: Rash", "setting": "160 mg n=6", "result": 1},
      {"measurement": "M2698-related TEAE: Rash maculo-papular", "setting": "160 mg n=6", "result": 0},
      {"measurement": "M2698-related TEAE: Skin and subcutaneous tissue disorders", "setting": "160 mg n=6", "result": 2},
      {"measurement": "M2698-related TEAE: Subjects with at least one event", "setting": "160 mg n=6", "result": 4},
      {"measurement": "M2698-related TEAE: Transaminases increased", "setting": "160 mg n=6", "result": 1},
      {"measurement": "M2698-related TEAE: Tremor", "setting": "160 mg n=6", "result": 0},
      {"measurement": "M2698-related TEAE: Vision blurred", "setting": "160 mg n=6", "result": 0},
      {"measurement": "M2698-related TEAE: Vomiting", "setting": "160 mg n=6", "result": 0},
      {"measurement": "M2698-related TEAE: White blood cell count decreased", "setting": "160 mg n=6", "result": 1},
      {"measurement": "DLT observed", "setting": "160 mg, n = 1", "result": "grade 3 increase in gamma-glutamyltransferase"},
      {"measurement": "M2698-related TEAE: Abnormal dreams", "setting": "200 mg n=3", "result": 0},
      {"measurement": "M2698-related TEAE: Affect lability", "setting": "200 mg n=3", "result": 0},
      {"measurement": "M2698-related TEAE: Alanine aminotransferase increased", "setting": "200 mg n=3", "result": 0},
      {"measurement": "M2698-related TEAE: Amylase increased", "setting": "200 mg n=3", "result": 0},
      {"measurement": "M2698-related TEAE: Anaemia", "setting": "200 mg n=3", "result": 1},
      {"measurement": "M2698-related TEAE: Angina pectoris", "setting": "200 mg n=3", "result": 0},
      {"measurement": "M2698-related TEAE: Anxiety", "setting": "200 mg n=3", "result": 0},
      {"measurement": "M2698-related TEAE: Aphasia", "setting": "200 mg n=3", "result": 0},
      {"measurement": "M2698-related TEAE: Ataxia", "setting": "200 mg n=3", "result": 0},
      {"measurement": "M2698-related TEAE: Blood and lymphatic system disorders", "setting": "200 mg n=3", "result": 1},
      {"measurement": "M2698-related TEAE: Blood creatine phosphokinase increased", "setting": "200 mg n=3", "result": 0},
      {"measurement": "M2698-related TEAE: Blood creatinine increased", "setting": "200 mg n=3", "result": 0},
      {"measurement": "M2698-related TEAE: Cardiac disorders", "setting": "200 mg n=3", "result": 0},
      {"measurement": "M2698-related TEAE: Cognitive disorder", "setting": "200 mg n=3", "result": 0},
      {"measurement": "M2698-related TEAE: Constipation", "setting": "200 mg n=3", "result": 0},
      {"measurement": "M2698-related TEAE: Decreased appetite", "setting": "200 mg n=3", "result": 1}
    ]}
  ]
}
